Experimental data from patent US20230250096A1, “SUBSTITUTED PHENYL-1H-PYRROLO[2,3-c] PYRIDINE DERIVATIVES” (Janssen Pharmaceutica NV, priority 2021, published 2023).

Biological target: T1, menin/MLL (terbium chelate-labeled menin, FITC-MBM1 peptide) (Homo sapiens, UniProt O00255, T541A)
T1 construct: Menin (a.a 1-610-6xhis tag, 2.3 mg/mL in 20 mM Hepes)
T1 sequence (O00255 with tags, fused parts or gaps T541A): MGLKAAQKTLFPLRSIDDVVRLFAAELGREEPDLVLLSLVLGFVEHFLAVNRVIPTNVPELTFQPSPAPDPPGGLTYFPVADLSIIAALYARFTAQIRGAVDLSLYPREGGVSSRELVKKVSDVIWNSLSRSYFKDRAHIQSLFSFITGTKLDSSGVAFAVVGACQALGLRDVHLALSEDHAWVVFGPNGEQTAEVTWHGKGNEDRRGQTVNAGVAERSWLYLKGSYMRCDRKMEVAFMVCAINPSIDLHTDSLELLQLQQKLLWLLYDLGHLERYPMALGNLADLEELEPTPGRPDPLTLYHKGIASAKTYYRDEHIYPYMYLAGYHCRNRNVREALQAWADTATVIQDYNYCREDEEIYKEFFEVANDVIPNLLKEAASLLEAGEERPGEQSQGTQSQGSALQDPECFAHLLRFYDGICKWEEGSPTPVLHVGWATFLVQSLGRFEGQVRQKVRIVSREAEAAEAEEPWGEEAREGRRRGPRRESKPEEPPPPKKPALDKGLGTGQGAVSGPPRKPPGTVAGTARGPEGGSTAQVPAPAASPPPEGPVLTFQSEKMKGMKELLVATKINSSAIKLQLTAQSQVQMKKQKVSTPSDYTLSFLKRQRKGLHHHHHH
Experiment: Menin/MLL homogenous time-resolved fluorescence (HTRF) assay
Assay type: binding
Conditions: 30 min incubation
Procedure, shortened: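 Competition binding read by time-resolved FRET (FITC 520 nm over terbium 490 nm) after compound meets labeled menin 1-610-His […] for 30 min, then FITC-MBM1 (75 nM) for 15 min, ambient temperature, 0.5% DMSO. Eleven-point four-fold dilutions, usually starting at 10 μM, fitted to four-parameter curves for IC50.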

Row | Structure (SMILES) | IC50
1 | CC(=O)N1CCC(CN2CC[C@@H](Cc3cn(-c4ccc(F)cc4C(=O)N4CCC5CC54)c4cncc(C)c34)C2)CC1 (single isomer, unassigned) [Compound 311a] | 0.037 nM
2 | CC(=O)N1CCC(CN2CC[C@@H](Cc3cn(-c4ccc(F)cc4C(=O)N4CCC5CC54)c4cncc(C)c34)C2)CC1 (single isomer, unassigned) [Compound 311b] | 0.077 nM
3 | Cc1cncc2c1c(C[C@@H]1CCN(C[C@H]3CCNC(=O)CC3)C1)cn2-c1ccc(F)cc1C(=O)N1[C@H](C)CC[C@H]1C (single isomer, unassigned) [Compound 352a] | 0.102 nM
4 | Cc1cncc2c1c(C[C@@H]1CCN(C[C@@H]3CCNC(=O)CC3)C1)cn2-c1ccc(F)cc1C(=O)N1[C@H](C)CC[C@H]1C (single isomer, unassigned) [Compound 352b] | 0.247 nM
5 | Cc1cncc2c1c(C[C@@H]1CCN(CC3CCNC(=O)CC3)C1)cn2-c1ccc(F)cc1C(=O)N1CCC[C@H]1C (single isomer, unassigned) [Compound 353a] | 0.094 nM
6 | COCCN(C)CCCC(C(C)C)N1CC[C@@H](Cc2cn(-c3ccc(F)cc3C(=O)N(C)C(C)C)c3cncc(Cl)c23)C1 (some centres unmarked) [Compound 3] | 0.026 nM
7 | COCCN(C)CCCC(C(C)C)N1CC[C@H](Cc2cn(-c3ccc(F)cc3C(=O)N(C)C(C)C)c3cncc(Cl)c23)C1 (some centres unmarked) [Compound 4] | 0.016 nM
8 | COCCN(C)CCCC(C(C)C)N1CCC(Cc2cn(-c3ccc(F)cc3C(=O)N(C)C(C)C)c3cncc(F)c23)C1 (centres unmarked) [Compound 6] | 0.288 nM
9 | CNC(=O)c1cncc(N2CCC(N3CC(Cc4cn(-c5ccc(F)cc5C(=O)N(C)C(C)C)c5cncc(C)c45)C3)CC2)n1 [Compound 75] | 0.059 nM
10 | CN=S(=O)(c1cc(F)ccc1-n1cc(CC2CCN(CC3CCOCC3)C2)c2c(C)cncc21)C(C)C (centres unmarked) [Compound 77] | 0.191 nM
11 | CC(=O)N1CCC(C)(CN2CC(Cc3cn(-c4ccc(F)cc4C(=O)N(C)C(C)C)c4cncc(C)c34)C2)CC1 [Compound 84] | 0.075 nM
12 | Cc1cncc2c1c(CC1CN(CC3CCNC(=O)CC3)C1)cn2-c1ccc(F)cc1C(=O)N(C)C(C)C (centres unmarked) [Compound 104] | 0.147 nM
13 | Cc1cncc2c1c(C[C@@H]1CCN(C[C@H]3CCCCN3)C1)cn2-c1ccc(F)cc1C(=O)N(C)C(C)C [Compound 199] | 0.327 nM
14 | CC(=O)NC1CCC(N2CC[C@@H](Cc3cn(-c4ccc(F)cc4C(=O)N(C)C(C)C)c4cncc(C)c34)C2)CC1 (some centres unmarked) [Compound 200] | 0.909 nM
15 | CC(=O)NC1CCC(N2CC[C@@H](Cc3cn(-c4ccc(F)cc4C(=O)N(C)C(C)C)c4cncc(C)c34)C2)CC1 (some centres unmarked) [Compound 201] | 0.063 nM
16 | CC(=O)N1CC2CC(C1)C2N1CC[C@H](Cc2cn(-c3ccc(F)cc3C(=O)N(C)C(C)C)c3cncc(C)c23)C1 (some centres unmarked) [Compound 208] | 0.147 nM
17 | CC(=O)N1CC2CC(C1)C2N1CC[C@@H](Cc2cn(-c3ccc(F)cc3C(=O)N(C)C(C)C)c3cncc(C)c23)C1 (some centres unmarked) [Compound 209] | 0.202 nM
18 | CC(=O)NC1CCC(N2CC[C@H](Cc3cn(-c4ccc(F)cc4C(=O)N(C)C(C)C)c4cncc(C)c34)C2)CC1 (some centres unmarked) [Compound 211] | 0.032 nM
19 | Cc1cncc2c1c(CC1CN(CC3CCOCC3)C1)cn2-c1ccc(F)cc1C(=O)N1CCC2CC21 (centres unmarked) [Compound 262] | 0.018 nM
20 | Cc1cncc2c1c(CC1CN(CC3CCOCC3)C1)cn2-c1ccc(F)cc1C(=O)N1CC2CC1CO2 (centres unmarked) [Compound 264] | 0.034 nM
21 | Cc1cncc2c1c(CC1CN(CC3CCOCC3)C1)cn2-c1ccc(F)cc1C(=O)N1CCCC1CO (centres unmarked) [Compound 268] | 0.149 nM
22 | Cc1cncc2c1c(CC1CN(CC3CCOCC3)C1)cn2-c1ccc(F)cc1C(=O)N1CCC[C@H]1C [Compound 279] | 0.025 nM
23 | Cc1cncc2c1c(CC1CN(CC3CCOCC3)C1)cn2-c1ccc(F)cc1C(=O)N(CCO)C(C)C [Compound 281] | 0.058 nM
24 | CC(=O)N1CCC(CN2CC[C@@H](Cc3cn(-c4ccc(F)cc4C(=O)N4CCC5CC54)c4cncc(C)c34)C2)CC1 (some centres unmarked) [Compound 311] | 0.031 nM
25 | CC(=O)N1CCC(CN2CC[C@@H](Cc3cn(-c4ccc(F)cc4C(=O)N4CC5CC4CO5)c4cncc(C)c34)C2)CC1 (some centres unmarked) [Compound 312] | 0.058 nM
26 | Cc1cncc2c1c(C[C@@H]1CCN(CC3CCN(C(=O)C(C)C)CC3)C1)cn2-c1ccc(F)cc1C(=O)N1CCC[C@H]1CO [Compound 328] | 0.101 nM

The remaining lines, values ahead:

Row | IC50 | Structure (SMILES)
27 | 0.045 nM | CC(=O)N1CCC([C@H](CO)N2CC[C@@H](Cc3cn(-c4ccc(F)cc4C(=O)N(C)C(C)C)c4cncc(C)c34)C2)CC1 (single isomer, unassigned) [Compound 206a]
28 | 0.034 nM | CNC(=O)[C@H]1CC[C@H](CN2CC(Cc3cn(-c4ccc(F)cc4C(=O)N(C)C(C)C)c4cncc(C)c34)C2)CC1 [Compound 74]
29 | 0.078 nM | CN=S(=O)(c1cc(F)ccc1-n1cc(CC2CCN(CC3CCN(C(C)=O)CC3)C2)c2c(C)cncc21)C(C)C (centres unmarked) [Compound 128]
30 | 0.072 nM | Cc1cncc2c1c(CC1CN(CC3CCC(O)CC3)C1)cn2-c1ccc(F)cc1C(=O)N(C)C(C)C (centres unmarked) [Compound 144]
31 | 0.077 nM | COC(=O)[C@H]1CC[C@@H](CN2CC[C@@H](Cc3cn(-c4ccc(F)cc4C(=O)N(C)C(C)C)c4cncc(C)c34)C2)CC1 [Compound 153]
32 | 0.055 nM | Cc1cncc2c1c(C[C@@H]1CCN(C[C@H]3CC[C@@H](C(=O)N4CCC4)CC3)C1)cn2-c1ccc(F)cc1C(=O)N(C)C(C)C [Compound 178]
33 | 0.097 nM | CNC(=O)[C@H]1CC[C@@H](CN2CC[C@@H](Cc3cn(-c4ccc(F)cc4C(=O)N(C)C(C)C)c4cncc(C)c34)C2)CC1 [Compound 185]
34 | 0.544 nM | CC(=O)N1CCC(CCN2CC[C@@H](Cc3cn(-c4ccc(F)cc4C(=O)N(C)C(C)C)c4cncc(C)c34)C2)CC1 [Compound 189]
35 | 0.081 nM | CNC(=O)N1CCC(CN2CCC(Cc3cn(-c4ccc(F)cc4C(=O)N(C)C(C)C)c4cncc(C)c34)CC2)CC1 [Compound 202]
36 | 0.069 nM | CON(C)C(=O)N1CCC(CN2CCC(Cc3cn(-c4ccc(F)cc4C(=O)N(C)C(C)C)c4cncc(C)c34)CC2)CC1 [Compound 203]
37 | 0.091 nM | Cc1cncc2c1c(CC1CCN(CC3CCN(C(=O)N4CCOCC4)CC3)CC1)cn2-c1ccc(F)cc1C(=O)N(C)C(C)C [Compound 204]
38 | 0.106 nM | Cc1cncc2c1c(C[C@@H]1CCN(CC3CCC(O)CC3)C1)cn2-c1ccc(F)cc1C(=O)N(C)C(C)C (some centres unmarked) [Compound 205]
39 | 0.016 nM | Cc1cncc2c1c(C[C@@H]1CCN(CC3CCN(C(N)=O)CC3)C1)cn2-c1ccc(F)cc1C(=O)N(C)C(C)C [Compound 207]
40 | 0.061 nM | CC(=O)N1CCC(CN2CCC(Cc3cn(-c4ccc(F)cc4C(=O)N(C)C(C)C)c4cncc(C)c34)C2C)CC1 (centres unmarked) [Compound 228]
41 | 0.071 nM | CC(=O)N1CCC(CN2CC[C@@H](Cc3cn(-c4ccc(F)cc4C(=O)N4CCC[C@H]4C)c4cncc(C)c34)C2)CC1 [Compound 315]
42 | 0.055 nM | CC(=O)N1CCC(CN2CC[C@@H](Cc3cn(-c4ccc(F)cc4C(=O)N4[C@@H](C)CC[C@@H]4C)c4cncc(C)c34)C2)CC1 [Compound 316]
43 | 0.293 nM | CC(=O)N1CCC(CN2CC[C@@H](Cc3cn(-c4ccc(F)cc4C(=O)N4CCC[C@@H]4C)c4cncc(C)c34)C2)CC1 [Compound 319]
44 | 0.078 nM | CC(=O)N1CCC(CN2CC[C@@H](Cc3cn(-c4ccc(F)cc4C(=O)N(CC(C)O)C(C)C)c4cncc(C)c34)C2)CC1 (some centres unmarked) [Compound 320]
